US20260364079A1 (Principia Biopharma Inc., priority 2022, published 2026)

Tests used:
[1] = test system: collagen-induced arthritis; experiment: rat collagen-induced arthritis model; type: in vivo
251 kinases = experiment: broad kinase enzyme inhibition panel; type: biochemical; settings: 1 μM; of 251 kinases

## CC(C)(C=C(C#N)C(=O)N1CCC[C@@H](n2nc(-c3ccc(Oc4ccccc4)cc3F)c3c(N)ncnc32)C1)N1CCN(C2COC2)CC1 (mixture of isomers) [rilzabrutinib, (R)-2-[3-[4-amino-3-(2-fluoro-4-phenoxy-phenyl)pyrazolo[3,4-d]pyrimidin-1-yl]piperidine-1-carbonyl]-4-methyl-4-[4-(oxetan-3-yl)piperazin-1-yl]pent-2-enenitrile]
[1]
  disease reversal: full disease reversal
251 kinases
  number of kinases with >90% inhibition: 6 kinases
